ChEMBL document CHEMBL1201862, “PubChem BioAssay data set” (2004)
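Results reflect a 48-hour exposure of cells in 96-well plates to compound at five concentrations. GI50 = concentration required for 50% inhibition of growth.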 Activity calls are given as the source filed them. No stated cut-off is given here; in the data, active = GI50 up to about 1.1 µM and inactive = higher.

Columns and labels:
Experiment in all cases: DTP human tumour cell line panel, 48 h
CCRF-CEM = test system: CCRF-CEM
EKVX = test system: EKVX
HCT-116 = test system: HCT-116
HOP-92 = test system: HOP-92
HT-29 = test system: HT-29
K562 = test system: K562
NCI-H522 = test system: NCI-H522
OVCAR-3 = test system: OVCAR-3
OVCAR-4 = test system: OVCAR-4
OVCAR-5 = test system: OVCAR-5
OVCAR-8 = test system: OVCAR-8
SF-295 = test system: SF-295
SN12C = test system: SN12C
SR = test system: SR
TK-10 = test system: TK-10
U-251 = test system: U-251
UACC-62 = test system: UACC-62
NCI/ADR-RES = test system: NCI/ADR-RES
PC-3 = test system: PC-3
Hs-578T = test system: Hs-578T

Measured: GI50

CNC(=O)OCc1nc(SSc2nc(COC(=O)NC)c(COC(=O)NC)n2C)n(C)c1COC(=O)NC
inactive: CCRF-CEM > 100 µM | EKVX > 100 µM | HCT-116 > 100 µM | HOP-92 > 100 µM | HT-29 > 100 µM | K562 > 100 µM | NCI-H522 > 100 µM | OVCAR-3 > 100 µM | OVCAR-4 > 100 µM | OVCAR-5 > 100 µM | OVCAR-8 > 100 µM | SF-295 > 100 µM | SN12C > 100 µM | SR > 100 µM | TK-10 > 100 µM | U-251 > 100 µM | UACC-62 > 100 µM

C=CCCCCCCC#CCCCCCCCCCC[C@@H]1C(=O)O[C@H](C)[C@@H]1O.CCCCCCCCC#CCCCCCCCCCC[C@@H]1C(=O)O[C@H](C)[C@@H]1O
inactive: EKVX 16.8 µM | HCT-116 16.2 µM | HOP-92 10.5 µM | K562 6.19 µM | NCI-H522 5.32 µM | NCI/ADR-RES 9.59 µM | OVCAR-3 20.2 µM | OVCAR-4 16.4 µM | OVCAR-5 59.2 µM | OVCAR-8 15.3 µM | PC-3 13.1 µM | SF-295 18.8 µM | SN12C 15.3 µM | TK-10 15.7 µM | U-251 18.7 µM

Cc1nc(Cc2n[nH]c(C)n2)n[nH]1
inactive: CCRF-CEM > 100 µM | EKVX > 100 µM | HCT-116 > 100 µM | HOP-92 > 100 µM | HT-29 > 100 µM | K562 > 100 µM | NCI-H522 > 100 µM | NCI/ADR-RES > 100 µM | OVCAR-3 > 100 µM | OVCAR-4 > 100 µM | OVCAR-5 > 100 µM | OVCAR-8 > 100 µM | PC-3 > 100 µM | SF-295 > 100 µM | SN12C > 100 µM | SR > 100 µM | TK-10 > 100 µM | U-251 > 100 µM | UACC-62 > 100 µM

COc1ccc(CCN2C(=O)CC34C=CC(CC3C2=O)O4)cc1OC (stereo not drawn)
inactive: CCRF-CEM > 100 µM | EKVX > 100 µM | HCT-116 > 100 µM | HOP-92 97.5 µM | HT-29 > 100 µM | K562 > 100 µM | NCI/ADR-RES > 100 µM | OVCAR-3 > 100 µM | OVCAR-4 > 100 µM | OVCAR-5 > 100 µM | OVCAR-8 > 100 µM | PC-3 > 100 µM | SF-295 > 100 µM | SN12C > 100 µM | SR > 100 µM | TK-10 > 100 µM | U-251 > 100 µM | UACC-62 > 100 µM

C=CCOCn1ccc(=O)[nH]c1=O
inactive: CCRF-CEM > 100 µM | EKVX > 100 µM | HCT-116 > 100 µM | HT-29 > 100 µM | Hs-578T > 100 µM | K562 > 100 µM | NCI-H522 > 100 µM | OVCAR-8 > 100 µM | PC-3 > 100 µM | SF-295 > 100 µM | SN12C > 100 µM | SR > 100 µM | TK-10 > 100 µM | UACC-62 > 100 µM

CC(C)(c1cn(Cc2ccccc2)c2ccccc12)c1cn(Cc2ccccc2)c2ccccc12
inactive: CCRF-CEM > 100 µM | EKVX > 100 µM | HCT-116 > 100 µM | HOP-92 32.2 µM | HT-29 > 100 µM | K562 > 100 µM | NCI-H522 76.9 µM | OVCAR-3 > 100 µM | OVCAR-4 > 100 µM | OVCAR-5 > 100 µM | OVCAR-8 > 100 µM | SF-295 > 100 µM | SN12C 1.7 µM | SR > 100 µM | U-251 > 100 µM | UACC-62 > 100 µM

C[N+]1(C)CCCC1C(=O)[O-] (stereo not drawn)
inactive: CCRF-CEM > 100 µM | EKVX > 100 µM | HCT-116 > 100 µM | HOP-92 > 100 µM | HT-29 > 100 µM | K562 > 100 µM | NCI-H522 > 100 µM | OVCAR-3 > 100 µM | OVCAR-4 > 100 µM | OVCAR-8 > 100 µM | SF-295 > 100 µM | SN12C > 100 µM | SR > 100 µM | TK-10 > 100 µM | U-251 > 100 µM | UACC-62 > 100 µM

CCC1CC2CN3CCc4c([nH]c5c(-c6c(OC)ccc7c8c([nH]c67)[C@]6(C(=O)OC)CC7CC(CC)C6N(CC8)C7)c(O)ccc45)[C@](C(=O)OC)(C2)C13 (stereo partly drawn)
inactive: CCRF-CEM 15.3 µM | EKVX 17.1 µM | HCT-116 13 µM | HOP-92 12.9 µM | HT-29 5.37 µM | K562 6.19 µM | NCI-H522 15.7 µM | NCI/ADR-RES 20.4 µM | OVCAR-3 14.6 µM | OVCAR-5 16.6 µM | OVCAR-8 20.5 µM | PC-3 13.6 µM | SF-295 17.4 µM | SN12C 4.34 µM | SR 13.3 µM | TK-10 15.2 µM | U-251 12.9 µM | UACC-62 14.3 µM
